# In patent US12329457B2, “Hyperspectral imaging for early detection of Alzheimer's disease” (REGENTS OF THE UNIVERSITY OF MINNESOTA, priority 2011, dated 2025):
# Tests used:
# [1] = target: T1, Aβ^1-42 aggregates (Homo sapiens, UniProt P05067); assay: HSI with Spectral Angle Mapper (SAM) mapping and counting of intracellular amyloid aggregates; type: cell-based; settings: HSI imaging coupled with SAM
# T1 construct: Aβ1-42, FITC-Aβ1-42 and FITC-scrambled-Aβ1-42 were purchased from American Peptide Company; purchased American Peptide Company (Sunnyvale, CA, USA); host or cells: synthetic peptide added to SH-SY5Y cell cultures
# Procedure: (§1) Cell Culture and Cellular Uptake. The human neuroblastoma cell line, SH-SY-5Y, used in the present study was obtained from American Type Culture Collection (Manassas, VA). The cells were maintained in MEM:F12 (1:1) medium supplemented with 10% FBS, 100 units/mL penicillin and 100 units/mL streptomycin and 1% NEAA (non-essential amino acid). Cells were grown at 37° C. in a humidified atmosphere with 5% CO2/95% air. FITC-Aβ1-42, and FITC-scrambled-Aβ1-42, were added to SHSY5Y cultures for 24 h. […]
# (§2) The images were captured at 40× magnification using ENVI software, which is followed by extraction of spectral curves as described in the next section. The camera captured spectral responses from 400-1000 nm with a maximum readout time of 12 frames per second. […]
# Spectral Angle Mapping Classification Algorithm Among supervised classification methods, a SAM classification algorithm was selected due to its better performance than other classification algorithms for detection of β-amyloid aggregates in unknown samples. […] The spectral angle parameter value as α=0·1 or 0·2 was used for a SAM classifier where α is defined as the angle between testing spectrum vector a, and reference spectrum vector b and is calculated using the following equation: (Also, see FIG. 14, and Siddiqi et al., Cancer, 114(1), 13-21 (2008).
# [2] = test system: SH-SY5Y cells; assay: HSI spectral signature of cells exposed to Aβ1-42; type: cell-based, human
# Procedure: as §1, with “h. For time-dependence experiments, 250 nM FITC-Aβ1-42 was added to SHSY5Y cells, plated in 4-well Lab-Tek chamber slides (Nunc) and images as well as spectral scans (Cytoviva) were acquired at varying times (0-5 days) after addition of the labeled-Aβ1-42. For dose-dependence experiments, FITC-Aβ1-42 was added at varying concentrations (0-1000 nM) and imaged 24 h thereafter.” for “h.”
# as §2
# (§3) Acquisition of Spectral Scans from Hyperspectral Image The CytoViva Hyperspectral image analysis software powered by ENVI contains features to aid in the quantification and identification of materials by spectral data analysis. […]
# [3] = target: T2, Aβ^1-42 aggregation (Homo sapiens, UniProt P05067); assay: HSI spectral signature inhibitor screening in Aβ1-42-treated SH-SY5Y cells; type: cell-based; settings: cells co-incubated with inhibitor and Aβ^1-42; rank guanidine, then guanosine, then urea
# T2 construct: Aβ1-42, FITC-Aβ1-42 and FITC-scrambled-Aβ1-42 were purchased from American Peptide Company; purchased American Peptide Company (Sunnyvale, CA, USA); host or cells: synthetic peptide added to SH-SY5Y cell cultures
# Procedure: Cell Culture and Cellular Uptake. The human neuroblastoma cell line, SH-SY-5Y, used in the present study was obtained from American Type Culture Collection (Manassas, VA). The cells were maintained in MEM:F12 (1:1) medium supplemented with 10% FBS, 100 units/mL penicillin and 100 units/mL streptomycin and 1% NEAA (non-essential amino acid). Cells were grown at 37° C. in a humidified atmosphere with 5% CO2/95% air. FITC-Aβ1-42, and FITC-scrambled-Aβ1-42, were added to SHSY5Y cultures for 24 h. For time-dependence experiments, 250 nM FITC-Aβ1-42 was added to SHSY5Y cells, plated in 4-well Lab-Tek chamber slides (Nunc) and images as well as spectral scans (Cytoviva) were acquired at varying times (0-5 days) after addition of the labeled-Aβ1-42. For dose-dependence experiments, FITC-Aβ1-42 was added at varying concentrations (0-1000 nM) and imaged 24 h thereafter. In some experiments, SH-SY-5Y cells were incubated with FITC-Aβ1-42 for 48 h in the presence and absence of inhibitors or promoters of β-amyloid peptide.
# CytoViva hyperspectral imaging System After each treatment, slides were examined utilizing a CytoViva microscope and hyperspectral imaging system (CytoViva-Hyperspectral Imaging System (HSI), Auburn, AL; see the Cytoviva Hyperspectral Imaging System Manual) mounted on an Olympus BX-41 optical microscope. This system employs a darkfield-based illuminator that focuses a highly collimated light at oblique angles on the sample to obtain images with improved contrast and signal-to-noise ratio. […]
# as §2, §3
# [4] = test system: APP/PS1 mice; assay: Morris Water maze memory test in APP/PS1 mice; type: in vivo, mouse
# [5] = test system: APP/PS1 mice; assay: Retinal HSI spectra to follow treatment in APP/PS1 mice; type: in vivo, mouse
# Procedure: (b) Isolation and analysis of retina tissue. Eyes were enucleated from wild type and Alzheimer's mice at the desired age. For whole-mount retinas, eyes were fixed in […] of freshly prepared 4% PFA-PBS at room temperature for 45 minutes. This was followed by washing with ice-cold PBS solution (2 mL) at least five times. The anterior eye portion, cornea, was dissected out under surgical microscope. The iris was then removed followed by the sclera, lens and hyaloid vessels. The isolated retinas were then washed with ice-cold PBS and divided into four quadrants by making four radial incisions. The whole-mounts were prepared by transferring the dissected retinas onto a microscope slide and coverslipped with hardset Vectashield mounting medium with the nuclear stain DAPI. The whole-mount retina slides were scanned with Cytoviva microscope and spectral signatures were collected from wavelengths in the 400-1000 nm range as described before.
# (§4) Hyperspectral Imaging to follow treatment success in Alzheimer's mice Alzheimer's and wild type mice were treated with a candidate drug, ψ-GSH, three times a week for 12 weeks starting at the age of three to four months. (see More et al., (2012) Restoration of Glyoxalase Enzyme Activity Precludes Cognitive Dysfunction in a Mouse Model of Alzheimer's Disease. ACS Chem. Neurosci., DOI: 10.1021/cn3001679) The study was divided in four groups (10 mice/group). 1. […]
# [6] = test system: APP/PS1 mice; assay: Immunohistochemistry of brain tissue for Aβ load and plaques; type: in vivo, mouse
# Procedure: (a) Isolation and analysis of brain tissue. Brains were removed from wild type and Alzheimer's mice and post fixed in Zamboni's fixative (4% paraformaldehyde and 15% picric acid in 0.25 M sodium phosphate, pH 7.5) for 48 h before being cryopreserved in a 30% (wt/vol) sucrose/0.1 sodium phosphate-buffered saline solution. Frozen sections (10 μm) in OCT were cut on a sliding microtome, brought to room temperature and were coverslipped with hardset Vectashield mounting medium with the nuclear stain DAPI (catalogue #H-1500; Vector Laboratories, Burlingame, CA). The whole-mount brain slides were scanned with Cytoviva microscope and spectral signatures were collected from wavelengths in the 400-1000 nm range as described.
# (c) Immunohistochemistry of mouse brain and retina samples. For immunofluorescence studies, brain section slides and retina sample slides were pre-incubated for 1 hour in 5% normal goat serum (NGS) in 1×PBST (1×PBS containing 0.3% Triton X-100) at room temperature. A primary antibody against β-amyloid peptide ((Cell signaling, Cat. #2454) was employed then at a dilution of 1:200 in 1% NGS in 1×PBST. After an overnight incubation at 4° C., the slides were rinsed thrice for 10 min with 1×PBST and then incubated for 2 h in goat anti-rabbit IgG conjugated to Cy3 diluted to 1:1000 in 1% NGS in 1× PBST. The sections were rinsed in PBST thrice for 10 min and in PBS for 5 min. Samples were then dehydrated in ethanol, cleared with methyl salicylate, mounted in DEPEX (Electron Microscopy Science, Poole, UK) and staining of β-amyloid aggregates and plaques was visualized with Cytoviva microscope.
# as §4
# T2 sequence (P05067 672-713): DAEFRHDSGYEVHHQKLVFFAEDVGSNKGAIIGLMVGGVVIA
# T1 sequence (P05067 672-713): as above
molecule,measurement,setting,value
[Zn+2] [Zn^2+],number of intracellular amyloid aggregates compared to cells treated with Aβ^1-42 alone,[1],280%
Aβ^1-42: β-amyloid peptide purchased from American Peptide Company; FITC-labelled form used for cell uptake,time at which transmitted light reaches its nadir,"[2]; 250 nM peptide, HSI spectra over time",48 h
same,HSI spectral change in the 400-1000 nm wavelength region,"[2]; SH-SY5Y cells, 0-1000 nM peptide",transmitted light shifts to lower values
"N=C(N)N [guanidine, Guanidine]",number of intracellular amyloid aggregates compared to cells treated with Aβ^1-42 alone,[1],62%
same,attenuation of amyloid-induced HSI spectral change,[3],greatest attenuation in HSI spectral change
N[C@@H](CNC(=O)N[C@@H](CS)C(=O)NCC(=O)O)C(=O)O [ψ-GSH],spatial memory development and escape latencies relative to the saline-treated group,[4]; APP/PS1 mice treated orally,did not reach statistical significance
same,escape latency,"[4]; day 3, ψ-GSH treated mice (WT saline 17.29±2.13 s)",17.91 ± 4.65 s
same,escape latency,"[4]; day 4, ψ-GSH treated mice (WT saline 12.42±2.18 s)",14.64 ± 2.61 s
same,learned behavior during the first week of testing,[4]; i.p.,significant learned behavior inculcation
same,"time in the target quadrant, probe trial","[4]; i.p., untreated APP-PS1 16.39±3.39%, non-transgenic vehicle 36.67±5.30%",38.43±3.73%
same,"time in the target quadrant, probe trial",[4]; orally treated APP/PS1 mice,21.76±5.36%
same,retinal HSI spectra,[5]; APP/PS1 mice treated orally,did not exhibit any differences from those of transgenic mice
same,retinal HSI spectra,"[5]; APP/PS1 mice, ψ-GSH i.p. 12 weeks, after 2 months of treatment onward",tended toward those from normal mice
same,brain Aβ load,"[6]; i.p., versus untreated APP/PS1 mice",significantly lower Aβ load
same,Aβ plaques in brain relative to controls,[6]; orally treated APP/PS1 mice,modest decrease in Aβ plaques
same,number and sizes of Aβ plaques in brain,[6]; ψ-GSH treated group (i.p.),drastically reduced
Nc1nc2c(ncn2[C@@H]2O[C@H](CO)[C@@H](O)[C@H]2O)c(=O)[nH]1 [guanosine],attenuation of amyloid-induced HSI spectral change,[3],attenuation of amyloid-induced HSI spectral change
NC(N)=O [urea],attenuation of amyloid-induced HSI spectral change,[3],attenuation of amyloid-induced HSI spectral change
